Test results: patent US9636418B2 (priority 2013, dated 2017)
“And” between values parts separate entries of the source, which are not always exact repeats. Equal entries are not always repeated. “Also recorded” adds a separate entry of the source. Where two headings read alike, the source gives them in different places.

Legend:
[1] = system: TTX-sensitive Nav channels in mouse DRG neuron; format: cell-based
hNav1.7 [2] = biological target: T1, hNav1.7 (Homo sapiens, UniProt Q15858); assay: cell-based; conditions: IonWorks Quattro; read-out: IC50 Nav1.7
hNav1.5 [3] = biological target: T2, hNav1.5 (Homo sapiens, UniProt Q14524); assay: cell-based; conditions: IonWorks Quattro; read-out: IC50 Nav1.5
hNav1.4 [4] = biological target: T3, hNav1.4 (Homo sapiens, UniProt P35499); assay: cell-based; conditions: for IC50: IonWorks Quattro, read-out: IC50 Nav1.4; for Nav1.4/Nav1.7: ratio of IonWorks Quattro IC50 values
hNav1.3 = hNav1.3 (Homo sapiens, UniProt Q9NY46); assay: cell-based; conditions: IonWorks Quattro; read-out: IC50 Nav1.3
hNav1.7 [5] = biological target: T1, hNav1.7; assay: cell-based; format: cell-based; conditions: PatchXpress; * = at high concentrations compound would wash off slowly or not at all; read-out: PX hNav1.7 Tonic IC50
hNav1.4 [6] = biological target: T3, hNav1.4; assay: cell-based; conditions: for IC50: PatchXpress, * = at high concentrations compound would wash off slowly or not at all, read-out: PX hNav1.4 Tonic IC50; for Nav1.4/Nav1.7: ratio of PX IC50 values
hNav1.5 [7] = biological target: T2, hNav1.5; assay: cell-based; conditions: for IC50: PatchXpress, * = at high concentrations compound would wash off slowly or not at all, read-out: PX hNav1.5 Tonic IC50; for Nav1.5/Nav1.7: ratio of PX IC50 values

T2 sequence (Q14524 whole entry): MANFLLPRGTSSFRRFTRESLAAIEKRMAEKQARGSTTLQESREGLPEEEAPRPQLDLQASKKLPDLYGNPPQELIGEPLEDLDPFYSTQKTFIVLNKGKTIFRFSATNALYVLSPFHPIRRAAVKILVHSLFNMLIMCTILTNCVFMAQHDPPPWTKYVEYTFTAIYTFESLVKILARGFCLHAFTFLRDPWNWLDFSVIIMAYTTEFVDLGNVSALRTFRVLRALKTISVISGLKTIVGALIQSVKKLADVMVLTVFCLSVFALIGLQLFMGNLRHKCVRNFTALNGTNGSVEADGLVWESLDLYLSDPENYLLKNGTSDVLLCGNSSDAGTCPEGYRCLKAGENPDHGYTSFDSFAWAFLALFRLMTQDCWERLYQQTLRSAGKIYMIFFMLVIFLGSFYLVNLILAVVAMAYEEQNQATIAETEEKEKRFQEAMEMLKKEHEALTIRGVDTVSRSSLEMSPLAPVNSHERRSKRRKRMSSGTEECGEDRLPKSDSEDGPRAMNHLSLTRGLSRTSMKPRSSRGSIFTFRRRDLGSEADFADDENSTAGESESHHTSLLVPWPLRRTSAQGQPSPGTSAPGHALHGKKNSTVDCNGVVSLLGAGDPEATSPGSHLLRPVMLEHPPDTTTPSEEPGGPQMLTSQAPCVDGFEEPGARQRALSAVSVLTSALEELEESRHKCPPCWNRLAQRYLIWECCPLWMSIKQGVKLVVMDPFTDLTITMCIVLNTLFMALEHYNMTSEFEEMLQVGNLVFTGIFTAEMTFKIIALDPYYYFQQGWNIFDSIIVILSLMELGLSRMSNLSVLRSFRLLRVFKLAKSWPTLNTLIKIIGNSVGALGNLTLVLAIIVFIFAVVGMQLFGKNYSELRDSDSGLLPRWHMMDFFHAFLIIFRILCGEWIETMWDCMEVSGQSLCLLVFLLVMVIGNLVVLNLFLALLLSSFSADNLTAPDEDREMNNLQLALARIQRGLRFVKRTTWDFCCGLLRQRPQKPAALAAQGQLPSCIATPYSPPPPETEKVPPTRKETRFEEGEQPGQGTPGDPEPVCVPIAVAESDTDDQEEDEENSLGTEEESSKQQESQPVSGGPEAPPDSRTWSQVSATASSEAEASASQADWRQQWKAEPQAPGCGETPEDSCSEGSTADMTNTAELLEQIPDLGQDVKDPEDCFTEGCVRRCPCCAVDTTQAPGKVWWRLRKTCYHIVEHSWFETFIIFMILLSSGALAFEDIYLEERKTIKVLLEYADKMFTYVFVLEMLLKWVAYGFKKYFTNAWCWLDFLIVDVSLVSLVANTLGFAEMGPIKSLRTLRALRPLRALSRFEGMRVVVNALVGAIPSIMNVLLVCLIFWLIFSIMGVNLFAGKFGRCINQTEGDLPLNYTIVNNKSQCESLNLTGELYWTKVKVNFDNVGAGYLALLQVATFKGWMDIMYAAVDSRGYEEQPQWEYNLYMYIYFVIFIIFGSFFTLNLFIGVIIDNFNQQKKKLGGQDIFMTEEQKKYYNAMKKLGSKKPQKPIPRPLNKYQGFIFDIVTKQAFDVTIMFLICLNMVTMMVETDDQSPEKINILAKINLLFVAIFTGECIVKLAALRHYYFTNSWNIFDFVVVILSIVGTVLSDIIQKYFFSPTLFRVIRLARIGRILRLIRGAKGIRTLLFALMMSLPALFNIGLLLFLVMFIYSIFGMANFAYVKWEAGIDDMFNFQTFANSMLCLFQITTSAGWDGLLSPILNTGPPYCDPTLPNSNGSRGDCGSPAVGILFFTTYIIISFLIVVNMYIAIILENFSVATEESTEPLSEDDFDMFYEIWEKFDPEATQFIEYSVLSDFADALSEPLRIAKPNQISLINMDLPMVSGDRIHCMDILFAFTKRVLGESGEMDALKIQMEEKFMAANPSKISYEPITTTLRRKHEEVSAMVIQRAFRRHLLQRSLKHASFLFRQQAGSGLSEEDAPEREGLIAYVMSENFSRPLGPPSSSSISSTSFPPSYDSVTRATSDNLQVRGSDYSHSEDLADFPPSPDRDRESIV
T1 sequence (Q15858 whole entry): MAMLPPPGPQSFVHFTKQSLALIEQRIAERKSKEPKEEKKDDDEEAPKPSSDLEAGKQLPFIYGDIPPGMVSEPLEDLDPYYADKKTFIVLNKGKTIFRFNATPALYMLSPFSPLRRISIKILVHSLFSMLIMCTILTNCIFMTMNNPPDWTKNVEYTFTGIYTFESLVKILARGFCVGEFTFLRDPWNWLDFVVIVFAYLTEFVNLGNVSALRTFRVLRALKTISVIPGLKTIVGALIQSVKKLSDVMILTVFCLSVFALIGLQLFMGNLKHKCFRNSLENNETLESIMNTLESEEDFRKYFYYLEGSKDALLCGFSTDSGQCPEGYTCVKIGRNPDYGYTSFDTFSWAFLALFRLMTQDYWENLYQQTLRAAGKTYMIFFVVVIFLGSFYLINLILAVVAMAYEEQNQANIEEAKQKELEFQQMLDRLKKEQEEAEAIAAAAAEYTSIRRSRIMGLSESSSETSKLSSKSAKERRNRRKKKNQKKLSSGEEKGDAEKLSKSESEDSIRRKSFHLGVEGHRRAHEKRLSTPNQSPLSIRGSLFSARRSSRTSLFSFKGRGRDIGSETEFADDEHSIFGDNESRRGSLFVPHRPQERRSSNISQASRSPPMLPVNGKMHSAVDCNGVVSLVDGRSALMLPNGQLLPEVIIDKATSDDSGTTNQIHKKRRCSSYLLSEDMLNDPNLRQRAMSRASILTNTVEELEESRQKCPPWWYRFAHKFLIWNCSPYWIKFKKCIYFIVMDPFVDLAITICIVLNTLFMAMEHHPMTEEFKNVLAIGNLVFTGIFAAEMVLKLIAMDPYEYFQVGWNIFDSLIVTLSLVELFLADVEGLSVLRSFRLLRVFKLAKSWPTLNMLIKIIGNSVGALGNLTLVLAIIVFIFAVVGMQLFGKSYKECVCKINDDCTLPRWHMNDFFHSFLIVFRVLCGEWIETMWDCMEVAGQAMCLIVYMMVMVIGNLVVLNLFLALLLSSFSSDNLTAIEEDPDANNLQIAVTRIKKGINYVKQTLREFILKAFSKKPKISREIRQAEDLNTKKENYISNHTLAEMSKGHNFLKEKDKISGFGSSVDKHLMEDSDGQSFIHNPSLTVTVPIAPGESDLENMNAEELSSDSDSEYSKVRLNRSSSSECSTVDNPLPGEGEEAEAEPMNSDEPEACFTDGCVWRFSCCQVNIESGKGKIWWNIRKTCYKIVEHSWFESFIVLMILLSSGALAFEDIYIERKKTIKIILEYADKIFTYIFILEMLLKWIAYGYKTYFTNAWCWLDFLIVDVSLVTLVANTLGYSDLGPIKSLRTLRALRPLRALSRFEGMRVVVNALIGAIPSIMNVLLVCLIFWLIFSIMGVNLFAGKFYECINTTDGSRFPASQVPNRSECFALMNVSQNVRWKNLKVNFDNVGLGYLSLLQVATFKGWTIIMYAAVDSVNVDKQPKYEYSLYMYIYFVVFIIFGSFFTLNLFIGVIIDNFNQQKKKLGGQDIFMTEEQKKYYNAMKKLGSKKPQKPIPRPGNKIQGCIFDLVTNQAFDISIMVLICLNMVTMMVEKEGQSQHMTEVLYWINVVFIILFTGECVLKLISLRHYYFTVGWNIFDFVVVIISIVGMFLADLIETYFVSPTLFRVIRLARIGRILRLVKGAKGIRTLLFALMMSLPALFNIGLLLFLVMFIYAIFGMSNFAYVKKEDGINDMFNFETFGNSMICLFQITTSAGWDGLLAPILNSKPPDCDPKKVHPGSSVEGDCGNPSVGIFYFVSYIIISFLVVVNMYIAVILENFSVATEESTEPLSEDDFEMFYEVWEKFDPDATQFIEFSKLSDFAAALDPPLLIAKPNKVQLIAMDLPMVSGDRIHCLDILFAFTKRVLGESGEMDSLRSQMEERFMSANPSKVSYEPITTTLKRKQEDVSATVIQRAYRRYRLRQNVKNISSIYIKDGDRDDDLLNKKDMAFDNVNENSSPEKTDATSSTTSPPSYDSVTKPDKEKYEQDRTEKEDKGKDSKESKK

SMILES | block of TTX-sensitive Nav current ([1]; 300 nM SEQ ID NO:395, held at −77 mV) | potency relative to JzTx-V (more potent) ([1]; TTX-sensitive current, mouse DRG neurons) | IC50 (hNav1.7 [2]) | IC50 (hNav1.5 [3]) | IC50 (hNav1.4 [4]) [µM] | Nav1.4/Nav1.7 (hNav1.4 [4]) | IC50 (hNav1.3) [µM] | IC50 (hNav1.7 [5]) [µM] | IC50 (hNav1.4 [6]) [µM] | Nav1.4/Nav1.7 (hNav1.4 [6]) | IC50 (hNav1.5 [7]) [µM] | Nav1.5/Nav1.7 (hNav1.5 [7]) | potency relative to JzTx-V (less potent) [1] | block of TTX-sensitive Nav current ([1]; 300 nM SEQ ID NO:392, held at −88 mV) | block of TTX-sensitive Nav current [1]
C#CC[C@@H]1NC(=O)[C@@H]2CSSC[C@H](NC(=O)[C@H](Cc3ccc(O)cc3)NC(=O)[C@@H](N)CC#N)C(=O)N[C@@H](CCC(N)=O)C(=O)N[C@@H](CCCCN)C(=O)N[C@@H](Cc3c[nH]c4ccccc34)C(=O)N[C@@H](CCCC)C(=O)N[C@@H](Cc3c[nH]c4ccccc34)C(=O)N[C@@H]([C@@H](C)O)C(=O)N[C@H]3CSSC[C@H](NC(=O)[C@H](CCCNC(=N)N)NC(=O)[C@H](CC(C)C)NC(=O)CNC1=O)C(=O)N[C@@H](CCCCN)C(=O)N[C@@H](CC(C)C)C(=O)N[C@@H](Cc1c[nH]c4ccccc14)C(=O)N[C@H](C(=O)N[C@@H](CCCNC(=N)N)C(=O)N[C@@H](CCCCN)C(=O)N[C@@H](CCC(=O)O)C(=O)N[C@H](C(N)=O)[C@@H](C)CC)CSSC[C@H](NC(=O)[C@H](C)NC(=O)[C@H](CCCNC(=N)N)NC(=O)[C@H](CCCCN)NC(=O)[C@H](CO)NC(=O)[C@H](CC(=O)O)NC3=O)C(=O)N2 [SEQ ID NO: 395, CyA-[Nle6,Pra17,Glu28]JzTx-V(1-29)] | fully blocked TTX-sensitive Nav current; also recorded: complete inhibition | equipotent |  |  |  |  |  |  |  |  |  |  |  |  | 
CC[C@H](C)[C@H](NC(=O)[C@@H](NC(=O)[C@H](CCCCN)NC(=O)[C@H](CCCNC(=N)N)NC(=O)[C@@H]1CSSC[C@@H]2NC(=O)[C@H](C)NC(=O)[C@H](CCCNC(=N)N)NC(=O)[C@H](CCCCN)NC(=O)[C@H](CO)NC(=O)[C@H](CC(=O)O)NC(=O)[C@@H]3CSSC[C@H](NC(=O)[C@H](CC(=O)O)NC(=O)[C@H](CC(C)C)NC(=O)CNC(=O)[C@H](CCC(=O)O)NC(=O)[C@H](CSSC[C@H](NC(=O)[C@@H](N)Cc4ccc(O)cc4)C(=O)N[C@@H](CCC(N)=O)C(=O)N[C@@H](CCCCN)C(=O)N[C@@H](Cc4c[nH]c5ccccc45)C(=O)N[C@@H](CCSC)C(=O)N[C@@H](Cc4c[nH]c5ccccc45)C(=O)N[C@@H]([C@@H](C)O)C(=O)N3)NC2=O)C(=O)N[C@@H](CCCCN)C(=O)N[C@@H](CC(C)C)C(=O)N[C@@H](Cc2c[nH]c3ccccc23)C(=O)N1)[C@@H](C)CC)C(N)=O [compound 115] |  |  | 0.09 µM | 11.1 µM | > 5 | 53 | > 5 | 0.749 | 7.6 | 10 | 3.2 | 4 |  |  | 
CC[C@H](C)[C@H](NC(=O)[C@@H](NC(=O)[C@H](CCCCN)NC(=O)[C@H](CCCNC(=N)N)NC(=O)[C@@H]1CSSC[C@@H]2NC(=O)[C@H](C)NC(=O)[C@H](CCCNC(=N)N)NC(=O)[C@H](CCCCN)NC(=O)[C@H](CO)NC(=O)[C@H](CC(=O)O)NC(=O)[C@@H]3CSSC[C@H](NC(=O)[C@H](CCC(=O)O)NC(=O)[C@H](CC(C)C)NC(=O)CNC(=O)[C@H](CCC(=O)O)NC(=O)[C@H](CSSC[C@H](NC(=O)[C@@H](N)Cc4ccc(O)cc4)C(=O)N[C@@H](CCC(N)=O)C(=O)N[C@@H](CCCCN)C(=O)N[C@@H](Cc4c[nH]c5ccccc45)C(=O)N[C@@H](CCSC)C(=O)N[C@@H](Cc4c[nH]c5ccccc45)C(=O)N[C@@H]([C@@H](C)O)C(=O)N3)NC2=O)C(=O)N[C@@H](CCCCN)C(=O)N[C@@H](CC(C)C)C(=O)N[C@@H](Cc2c[nH]c3ccccc23)C(=O)N1)C(C)C)C(N)=O [compound 133] |  |  | 0.08 µM | 12 µM | 4 | 51 | 4.85 | 0.0041 | 1.31 | 320 | 5.5 |  |  |  | 
C#CC[C@H](N)C(=O)NCCCC[C@@H]1NC(=O)[C@H](CCCNC(=N)N)NC(=O)[C@H](CCCCN)NC(=O)[C@H](CO)NC(=O)[C@H](CC(=O)O)NC(=O)[C@@H]2CSSC[C@@H]3NC(=O)[C@H](CCCNC(=N)N)NC(=O)[C@H](CC(C)C)NC(=O)CNC(=O)[C@H](CCC(=O)O)NC(=O)[C@H](CSSC[C@H](NC(=O)[C@H](Cc4ccc(O)cc4)NC(=O)[C@@H](N)CC#N)C(=O)N[C@@H](CCC(N)=O)C(=O)N[C@@H](CCCCN)C(=O)N[C@@H](Cc4c[nH]c5ccccc45)C(=O)N[C@@H](CCCC)C(=O)N[C@@H](Cc4c[nH]c5ccccc45)C(=O)N[C@@H]([C@@H](C)O)C(=O)N2)NC(=O)[C@H](CSSC[C@@H](C(=O)N[C@@H](CCCNC(=N)N)C(=O)N[C@@H](CCCCN)C(=O)N[C@@H](CCC(=O)O)C(=O)N[C@H](C(N)=O)[C@@H](C)CC)NC(=O)[C@H](Cc2c[nH]c4ccccc24)NC(=O)[C@H](CC(C)C)NC(=O)[C@H](CCCCN)NC3=O)NC1=O [SEQ ID NO: 392, CyA-[Nle6,Lys(Pra)14,Glu28]JzTx-V(1-29)] |  |  |  |  |  |  |  |  |  |  |  |  | about 3 fold | blocked most TTX-sensitive Nav current; also recorded: almost complete inhibition | 
CSCC[C@@H]1NC(=O)[C@H](Cc2c[nH]c3ccccc23)NC(=O)[C@H](CCCCN)NC(=O)[C@H](CCC(N)=O)NC(=O)[C@@H](NC(=O)[C@@H](N)Cc2ccc(O)cc2)CSSC[C@@H]2NC(=O)[C@@H]3CSSC[C@@H](C(=O)N[C@@H](CCCNC(=N)N)C(=O)N[C@@H](CCCCN)C(=O)N[C@@H](Cc4ccc(O)cc4)C(=O)N[C@@H](Cc4cccc5ccccc45)C(N)=O)NC(=O)[C@H](Cc4c[nH]c5ccccc45)NC(=O)[C@H](CC(C)C)NC(=O)[C@H](CCCCN)NC(=O)[C@H](CSSC[C@H](NC(=O)[C@H]([C@@H](C)O)NC(=O)[C@H](Cc4c[nH]c5ccccc45)NC1=O)C(=O)N[C@@H](CC(=O)O)C(=O)N[C@@H](CO)C(=O)N[C@@H](CCCCN)C(=O)N[C@@H](CCCNC(=N)N)C(=O)N[C@@H](C)C(=O)N3)NC(=O)[C@H](CCC(=O)O)NC(=O)[C@H](CC(C)C)NC(=O)CNC(=O)[C@H](CCC(=O)O)NC2=O [compound 232] |  |  | 0.05 µM | 4.6 µM | 4.6 | 91 | 2.1 | 0.0045 | 1.67 |  | 2.16 | 480 |  |  | 
NC1=N[C@H](O)[C@H]2[C@H]3O[C@]4(O)O[C@@H]([C@@H](O)[C@@]2(N1)[C@@H]4O)[C@]3(O)CO [TTX, tetrodotoxin, reference compound] |  |  |  |  |  |  |  |  |  |  |  |  |  |  | completely blocked TTX-sensitive Nav current
CC[C@H](C)[C@H](NC(=O)[C@H](CCCNC(N)=O)NC(=O)[C@H](CCCCN)NC(=O)[C@H](CCCNC(=N)N)NC(=O)[C@@H]1CSSC[C@@H]2NC(=O)[C@H](C)NC(=O)[C@H](CCCNC(=N)N)NC(=O)[C@H](CCCCN)NC(=O)[C@H](CO)NC(=O)[C@H](CC(=O)O)NC(=O)[C@@H]3CSSC[C@H](NC(=O)[C@H](CCC(=O)O)NC(=O)[C@H](CC(C)C)NC(=O)CNC(=O)[C@H](CCC(=O)O)NC(=O)[C@H](CSSC[C@H](NC(=O)[C@@H](N)Cc4ccc(O)cc4)C(=O)N[C@@H](CCC(N)=O)C(=O)N[C@@H](CCCCN)C(=O)N[C@@H](Cc4c[nH]c5ccccc45)C(=O)N[C@@H](CCSC)C(=O)N[C@@H](Cc4c[nH]c5ccccc45)C(=O)N[C@@H]([C@@H](C)O)C(=O)N3)NC2=O)C(=O)N[C@@H](CCCCN)C(=O)N[C@@H](CC(C)C)C(=O)N[C@@H](Cc2c[nH]c3ccccc23)C(=O)N1)C(N)=O [compound 135] |  |  | 0.11 µM | 12 µM | > 5 | 46 | > 5 | 0.0056 | 6.02 |  | > 10 |  |  |  | 
CCC[C@H](NC(=O)[C@H](CCCCN)NC(=O)[C@H](CCCNC(=N)N)NC(=O)[C@@H]1CSSC[C@@H]2NC(=O)[C@H](C)NC(=O)[C@H](CCCNC(=N)N)NC(=O)[C@H](CCCCN)NC(=O)[C@H](CO)NC(=O)[C@H](CC(=O)O)NC(=O)[C@@H]3CSSC[C@H](NC(=O)[C@H](CCC(=O)O)NC(=O)[C@H](CC(C)C)NC(=O)CNC(=O)[C@H](CCC(=O)O)NC(=O)[C@H](CSSC[C@H](NC(=O)[C@@H](N)Cc4ccc(O)cc4)C(=O)N[C@@H](CCC(N)=O)C(=O)N[C@@H](CCCCN)C(=O)N[C@@H](Cc4c[nH]c5ccccc45)C(=O)N[C@@H](CCSC)C(=O)N[C@@H](Cc4c[nH]c5ccccc45)C(=O)N[C@@H]([C@@H](C)O)C(=O)N3)NC2=O)C(=O)N[C@@H](CCCCN)C(=O)N[C@@H](CC(C)C)C(=O)N[C@@H](Cc2c[nH]c3ccccc23)C(=O)N1)C(=O)N[C@H](C(N)=O)[C@@H](C)CC [compound 136] |  |  | 0.08 µM and 0.15 µM | 8.9 µM and 15.8 µM | > 5 | 66 and 34 | > 5 | 0.0128 | 5.19 |  | 7.82 |  |  |  | 
